Results published in US20250376479A1, “EXATECAN DERIVATIVES AND USES THEREOF” (priority 2024, published 2025).

Tested on: NCI-H524
Test: Cytotoxicity test, luminescent cell viability
Assay type: cell-based
Conditions: Homo sapiens; NCI-H524 (SCLC), 72-hour incubation
Source text: (§1) Cytotoxicity of compounds was investigated using SHP77 (SCLC ATCC No. CRL-2195), NCI-H82 (SCLC, Jennio-bio No. JNO-22126A), NCI-H524 (SCLC, Pricella NO. CL-0403), NCI-H226 (Lung cancer, Pricella NO. CL-0396), NCI-H460 (LCLC, Pricella NO. CL-0299), OVCAR3 (Ovarian cancer, ATCC No. HTB-161), OV90 (Ovarian cancer, ATCC No. CRL-11732), LS1034 (Colon carcinoma, cobioer No. CBP60013), HT55 (Colon carcinoma, cobioer No. CBP60012), MDA-MB-468 (Breast cancer, ATCC No.htb-132) and NCI-N87 (Stomach cancer, ATCC No.CRL-5822). In brief, 5,000 cells/well of cancer cells were platted in white 96-well assay plates with flat clear bottom (Cat. No. BS-MP-96W, Biosharp) (excluding edge wells, which contained medium or PBS only) in 90 μL basic culture medium and were grown at 37° C. in a humidified incubator at 5% CO2 atmosphere. After incubation overnight, each compound was added to the respective wells in an amount of 10 μl of 10× concentrate tests from 100 nM to 0.015 nM. After additional 72-hour incubation, plates were removed from incubator and equilibrated to room temperature. After approximately 30 mins, 50 μL of Cell counting-lite 2.0 Luminescent Cell Viability Assay (Cat. No. G7573, Promega) were added to each well. After shaking the plates at 450 rpm for 3 mins followed by 10-min incubation without shaking, luminescence was measured on the Envision plate reader (Equipment No. 2104, PerkinElmer) with integration time of 250 ms per well. Curves of luminescence versus concentration (nM) were fitted with GraphPad Prism Software.

SMILES | IC50 [nM]
CC[C@@]1(O)C(=O)OCc2c1cc1n(c2=O)Cc2c-1nc1cc(F)c(C)c3c1c2[C@H](NC(=O)C1COC1)CC3 [Compound 4] | 90.6
CC[C@@]1(O)C(=O)OCc2c1cc1n(c2=O)Cc2c-1nc1cc(F)c(C)c3c1c2[C@H](NC(=O)CN(C)C)CC3 [Compound 2] | 40.4

Tested on: NCI-H82
Test: Cytotoxicity test, luminescent cell viability
Assay type: cell-based
Conditions: Homo sapiens; NCI-H82 (SCLC), 72-hour incubation
Source text: as §1

SMILES | IC50 [nM]
CC[C@@]1(O)C(=O)OCc2c1cc1n(c2=O)Cc2c-1nc1cc(F)c(C)c3c1c2[C@H](NC(=O)C1COC1)CC3 [Compound 4] | 1500
CC[C@@]1(O)C(=O)OCc2c1cc1n(c2=O)Cc2c-1nc1cc(F)c(C)c3c1c2[C@H](NC(=O)CN(C)C)CC3 [Compound 2] | 154

Tested on: MDA-MB-468
Test: Cytotoxicity test, luminescent cell viability
Assay type: cell-based
Conditions: Homo sapiens; MDA-MB-468 (Breast cancer), 72-hour incubation
Source text: as §1

SMILES | IC50 [nM]
CC[C@@]1(O)C(=O)OCc2c1cc1n(c2=O)Cc2c-1nc1cc(F)c(C)c3c1c2[C@H](NC(=O)C1COC1)CC3 [Compound 4] | 6.7
CC[C@@]1(O)C(=O)OCc2c1cc1n(c2=O)Cc2c-1nc1cc(F)c(C)c3c1c2[C@H](NC(=O)CN(C)C)CC3 [Compound 2] | 10.8

Tested on: NCI-H226
Test: Cytotoxicity test, luminescent cell viability
Assay type: cell-based
Conditions: Homo sapiens; NCI-H226 (Lung cancer), 72-hour incubation
Source text: as §1

SMILES | IC50 [nM]
CC[C@@]1(O)C(=O)OCc2c1cc1n(c2=O)Cc2c-1nc1cc(F)c(C)c3c1c2[C@H](NC(=O)C1COC1)CC3 [Compound 4] | 44.6
CC[C@@]1(O)C(=O)OCc2c1cc1n(c2=O)Cc2c-1nc1cc(F)c(C)c3c1c2[C@H](NC(=O)CN(C)C)CC3 [Compound 2] | 21

Tested on: LS1034
Test: Cytotoxicity test, luminescent cell viability
Assay type: cell-based
Conditions: Homo sapiens, LS-1034; LS1034 (Colon carcinoma), 72-hour incubation
Source text: as §1

SMILES | IC50 [nM]
CC[C@@]1(O)C(=O)OCc2c1cc1n(c2=O)Cc2c-1nc1cc(F)c(C)c3c1c2[C@H](NC(=O)C1COC1)CC3 [Compound 4] | 249
CC[C@@]1(O)C(=O)OCc2c1cc1n(c2=O)Cc2c-1nc1cc(F)c(C)c3c1c2[C@H](NC(=O)CN(C)C)CC3 [Compound 2] | 205

Tested on: HT55
Test: Cytotoxicity test, luminescent cell viability
Assay type: cell-based
Conditions: Homo sapiens; HT55 (Colon carcinoma), 72-hour incubation
Source text: as §1

SMILES | IC50 [nM]
CC[C@@]1(O)C(=O)OCc2c1cc1n(c2=O)Cc2c-1nc1cc(F)c(C)c3c1c2[C@H](NC(=O)C1COC1)CC3 [Compound 4] | 349
CC[C@@]1(O)C(=O)OCc2c1cc1n(c2=O)Cc2c-1nc1cc(F)c(C)c3c1c2[C@H](NC(=O)CN(C)C)CC3 [Compound 2] | 315

Tested on: SHP77
Test: Cytotoxicity test, luminescent cell viability
Assay type: cell-based
Conditions: Homo sapiens; SHP77 (SCLC), 72-hour incubation
Source text: as §1

SMILES | IC50 [nM]
CC[C@@]1(O)C(=O)OCc2c1cc1n(c2=O)Cc2c-1nc1cc(F)c(C)c3c1c2[C@H](NC(=O)C1COC1)CC3 [Compound 4] | 655
CC[C@@]1(O)C(=O)OCc2c1cc1n(c2=O)Cc2c-1nc1cc(F)c(C)c3c1c2[C@H](NC(=O)CN(C)C)CC3 [Compound 2] | 301

Tested on: NCI-N87
Test: Cytotoxicity test, luminescent cell viability
Assay type: cell-based
Conditions: Homo sapiens; NCI-N87 (Stomach cancer), 72-hour incubation; read-out: IC50 NC-N87
Source text: as §1

SMILES | IC50 [nM]
CC[C@@]1(O)C(=O)OCc2c1cc1n(c2=O)Cc2c-1nc1cc(F)c(C)c3c1c2[C@H](NC(=O)C1COC1)CC3 [Compound 4] | 29.6
CC[C@@]1(O)C(=O)OCc2c1cc1n(c2=O)Cc2c-1nc1cc(F)c(C)c3c1c2[C@H](NC(=O)CN(C)C)CC3 [Compound 2] | 13

Tested on: NCI-H460
Test: Cytotoxicity test, luminescent cell viability
Assay type: cell-based
Conditions: Homo sapiens; NCI-H460 (LCLC), 72-hour incubation
Source text: as §1

SMILES | IC50 [nM]
CC[C@@]1(O)C(=O)OCc2c1cc1n(c2=O)Cc2c-1nc1cc(F)c(C)c3c1c2[C@H](NC(=O)C1COC1)CC3 [Compound 4] | 31.2
CC[C@@]1(O)C(=O)OCc2c1cc1n(c2=O)Cc2c-1nc1cc(F)c(C)c3c1c2[C@H](NC(=O)CN(C)C)CC3 [Compound 2] | 15.5

Tested on: OVCAR3
Test: Cytotoxicity test, luminescent cell viability
Assay type: cell-based
Conditions: Homo sapiens, OVCAR-3; OVCAR3 (Ovarian cancer), 72-hour incubation
Source text: as §1

SMILES | IC50 [nM]
CC[C@@]1(O)C(=O)OCc2c1cc1n(c2=O)Cc2c-1nc1cc(F)c(C)c3c1c2[C@H](NC(=O)C1COC1)CC3 [Compound 4] | 395
CC[C@@]1(O)C(=O)OCc2c1cc1n(c2=O)Cc2c-1nc1cc(F)c(C)c3c1c2[C@H](NC(=O)CN(C)C)CC3 [Compound 2] | 208

Tested on: OV90
Test: Cytotoxicity test, luminescent cell viability
Assay type: cell-based
Conditions: Homo sapiens, OV-90; OV90 (Ovarian cancer), 72-hour incubation
Source text: as §1

SMILES | IC50 [nM]
CC[C@@]1(O)C(=O)OCc2c1cc1n(c2=O)Cc2c-1nc1cc(F)c(C)c3c1c2[C@H](NC(=O)C1COC1)CC3 [Compound 4] | 76
CC[C@@]1(O)C(=O)OCc2c1cc1n(c2=O)Cc2c-1nc1cc(F)c(C)c3c1c2[C@H](NC(=O)CN(C)C)CC3 [Compound 2] | 15.2

Tested on: not listed separately
Test: Membrane permeability test (Caco-2 monolayer)
Assay type: in vitro ADME
Conditions: human, Caco-2, pH 7.4
Description: Caco-2 cells purchased from ATCC were seeded onto 0.4 μm pore polycarbonate membranes (PC) in 96-well Corning Insert plates at 3.5×10^4 cells/cm^2, and refreshed medium every 4˜5 days until to the 21st to 28th day for confluent cell monolayer formation.
The transport buffer in the study was HBSS with 10.0 mM HEPES at pH 7.40±0.05. Each test compound was tested at 2.00 μM in the presence or absence of 1.00 μM zosuquidar bi-directionally in duplicate. Digoxin was tested at 10.0 μM in the presence or absence of 1.00 μM zosuquidar bi-directionally in duplicate, while nadolol and metoprolol were tested at 2.00 μM in the absence of zosuquidar in A to B direction in duplicate. Final DMSO concentration was adjusted to less than 1%. The plate was incubated for 2 hours in CO2 incubator at 37.0° C., with 5% CO2 at saturated humidity without shaking. And all samples after mixed with acetonitrile containing internal standard were centrifuged at 3220×g for 10 min. Concentrations of test compounds in starting solution, donor solution and receiver solution were quantified by LC-MS/MS methodologies, using peak area ratio of analyte/internal standard. And permeation of lucifer yellow through the monolayer was measured to evaluate the cellular integrity.
The apparent permeability coefficient Papp (cm/s) was calculated using the equation: […]
where dCr/dt is the cumulative concentration of compound in the receiver chamber as a function of time; Vr is the solution volume in the receiver chamber (0.0750 mL on the apical side, 0.250 mL on the basolateral side); A is the surface area for the transport, i.e., 0.143 cm2 for the area of the monolayer; C0 is the initial concentration in the donor chamber.

SMILES | Papp A→B at 2 h, 2 μM [×10⁻⁶ cm/s]
CC[C@@]1(O)C(=O)OCc2c1cc1n(c2=O)Cc2c-1nc1cc(F)c(C)c3c1c2[C@H](NC(=O)C1COC1)CC3 [Compound 4] | 0.026
CC[C@@]1(O)C(=O)OCc2c1cc1n(c2=O)Cc2c-1nc1cc(F)c(C)c3c1c2[C@H](NC(=O)CN(C)C)CC3 [Compound 2] | 0.199
